One assay deals with T1, GDP-bound HRAS WT (Homo sapiens, UniProt P01112).
T1 construct: His-tagged HRAS WT (aa 1–166); made in house; host or cells: Escherichia coli
As to the kind of experiment: SOS1-mediated guanine nucleotide exchange assay (TR-FRET). The assay is classed as biochemical. The note with it: GDP-bound HRAS WT; compound pre-incubation 25°C, 60 min; read-out: IC50. (In general: Time-resolved FRET reads energy transfer from a long-lived donor to a nearby acceptor.)

In the next assay the target is T2, GDP-bound NRAS WT (Homo sapiens, UniProt P01111).
T2 construct: His-tagged NRAS WT (aa 1–172); made in house; host or cells: Escherichia coli
Described as above. The assay is classed as biochemical.

In the next assay the target is T3, GppNp-bound HRAS WT (Homo sapiens, UniProt P01112).
T3 construct: His-tagged HRAS WT (aa 1–166); made in house; host or cells: Escherichia coli
Put plainly: GppNp-loaded RAS and cRAF interaction assay (HTRF). It is filed as biochemical. The note with it: GppNp-bound HRAS WT and cRAF RBD interaction; read-out: IC50.

Another assay concerns the target T4, GppNp-bound NRAS WT (Homo sapiens, UniProt P01111).
T4 construct: His-tagged NRAS WT (aa 1–172); made in house; host or cells: Escherichia coli
Put plainly: GppNp-loaded RAS and cRAF interaction assay (HTRF). It is filed as biochemical.

Assay [1] has as its system Ba/F3 cells carrying HRAS p.G12C. As to the kind of experiment: Ba/F3-engineered cell line viability. The assay is classed as cell-based. The note with it: Mus musculus, BaF3, 144 h; Ba/F3 HRAS p.G12C; 6 days of treatment; read-out: Cell viability IC50. The protocol: (§1) The inhibitory activity of compounds on Ba/F3-engineered cell line viability was tested by Kyinno Biotechnology. Other cell viability assays on human cancer cell lines were conducted in-house. Cells were seeded in 96-well plates and incubated overnight, followed by treatment with various concentrations of compounds or solvent control for 6 days. Cell viability was detected using either the CellTiter-Glo (CTG) luminescent cell viability assay or the CTG 3D cell viability assay (Promega) for 2D and 3D CTG assays, respectively. […] The cell density is indicated in Supplementary Table S3.

In assay [2] the test system is Ba/F3 cells carrying NRAS p.G12C. As to the kind of experiment: Ba/F3-engineered cell line viability. The assay is classed as cell-based. The note with it: Mus musculus, BaF3, 144 h; Ba/F3 NRAS p.G12C; 6 days of treatment; read-out: Cell viability IC50. The protocol:
as §1

In assay [3] the test system is CR6256 PDX tumors rebounding after sotorasib treatment. Put plainly: PDX study on tumors regrown under sotorasib. The assay is classed as in vivo, mice. The note with it: after 63 days of 100 mg/kg sotorasib; then 100 mg/kg sotorasib, 100 mg/kg glecirasib, 50 mg/kg cetuximab or combination.
The test system of assay [4] is NCI-H1373 lung cancer xenograft. Put plainly: Cell line–derived xenograft study. It is filed as in vivo, BALB/c-nu mice. The note with it: NCI-H1373 lung cancer xenograft model; single agents or combination, orally once a day. From the text: Female BALB/c nude mice (CAnN.Cg-Foxn1^nu/Crl, RRID: IMSR_CRL:194) were obtained from Beijing Vital River Laboratory Animal Technology Co., Ltd. Female BALB/c-nu mice (BALB/cAnSlacNifdc-nu) were obtained from SPF (Beijing) Biotechnology Co., Ltd. Female NCG mice (NOD/ShiLtJGpt-Prkdc^em26Cd52Il2rg^em26Cd22/Gpt) were obtained from GemPharmatech. Subcutaneous tumors were induced by injecting cells in PBS containing 50% BD Matrigel (Corning) in the right flank of female BALB/c-nu mice (NCI-H1373, 5 × 10^6 cells), female BALB/c nude mice (MIA PaCa-2, 1 × 10^7 cells), or female NCG mice (NCI-H358, 5 × 10^6 cells).

The values below come from article PMC12076188 (Cancer Research Communications, 2025).

Molecules are shown by their SMILES. Like-named read-outs stand apart in the source and are kept apart here. Bounds are passed on as bounds.

T4 sequence (P01111 1-172): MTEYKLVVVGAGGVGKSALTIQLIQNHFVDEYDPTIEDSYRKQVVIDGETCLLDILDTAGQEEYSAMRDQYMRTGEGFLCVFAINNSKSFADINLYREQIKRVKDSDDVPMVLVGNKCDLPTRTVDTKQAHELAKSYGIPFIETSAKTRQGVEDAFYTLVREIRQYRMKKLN
T2 sequence (P01111 1-172): as above
T1 sequence (P01112 1-166): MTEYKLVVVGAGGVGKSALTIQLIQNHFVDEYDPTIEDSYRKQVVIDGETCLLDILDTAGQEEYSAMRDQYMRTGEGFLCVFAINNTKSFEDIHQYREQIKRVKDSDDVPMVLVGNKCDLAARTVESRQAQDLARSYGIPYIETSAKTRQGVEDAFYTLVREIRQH
T3 sequence (P01112 1-166): as above

`C=CC(=O)N1CCN(c2nc(=O)n(-c3c(C)ccnc3C(C)C)c3nc(-c4c(O)cccc4F)c(F)cc23)[C@@H](C)C1` [Sotorasib, reference compound]: the IC50 on GDP-bound HRAS WT was over 10 µM; on GDP-bound NRAS WT (GDP-bound NRAS WT, compound pre-incubation 25°C, 60 min, read-out: IC50) it was over 10 µM; on GppNp-bound HRAS WT it was over 10 µM; on GppNp-bound NRAS WT (GppNp-bound NRAS WT and cRAF RBD interaction, read-out: IC50), over 10 µM; in assay [1] it was 0.0271 µM; in assay [2], 0.0147 µM. For the same molecule, the “tumor response of rebound tumors” value in assay [3] was “continued to grow”.

As for `Nc1nccc(Sc2cnc(N3CCC4(CC3)Cc3ncccc3[C@H]4N)cn2)c1Cl` [JAB-3312], the inhibition of tumour growth (TGI) in assay [4] is 64%.

Turning to `C=C(F)C(=O)N1CCN(c2nc(OC[C@@H]3CCCN3C)nc3c2CCN(c2cccc4cccc(Cl)c24)C3)C[C@@H]1CC#N` [Adagrasib], the IC50 at GDP-bound NRAS WT and on GppNp-bound NRAS WT was over 10 µM each time.

The term IC50 denotes the point on the concentration scale where inhibition reaches its midpoint. The term TGI denotes how far tumour growth fell short of that in controls.
